One series relates to PBMC of patients. The series is described as follows: Mitochondrial DNA content per PBMC of HIV-1 infected patients on antiviral therapy (duplex NASBA). In kind it is in vivo, human (HIV-1 infected patients). Conditions: for Mitochondrial DNA content in PBMC (per cell), Median / % decrease in mitochondrial DNA content of PBMC: patients. As to the method:
Different ratios of mitochondrial and chromosomal DNA targets in plasmids were analyzed in this example: 2×10^3 U1a DNA/8×10^3 Mt DNA, 2×10^3 U1a DNA/2×10^4 MtDNA, 2×10^3 U1a DNA/4×10^4 Mt DNA, 2×10^3 U1a DNA/10^5 Mt DNA, 2×10^3 U1a DNA/2×10^5 Mt DNA, 2×10^3 U1a DNA/4×10^5 Mt DNA, and 2×10^3 U1a DNA/8×10^5 Mt DNA molecules were included. A reaction mix was prepared similar to that of Example 12, except that primers and beacons differed in order to amplify chromosomal and mitochondrial DNA in one tube. The reaction mix (duplex-mix) contained two sets of primers and beacons: SnrpD P1 and SnrpD2 P2 (first primer set, each 0.2 μM), and MtD P1—2 and MtD P2—2 (second primer set, each 0.3 μM) with beacons SnrpD mb—2 (FAM-labeled) and MtD mb—3 (ROX-labeled) (each 0.04 μM). See Table 1 for primer and, probe sequences. Restriction enzyme digestion, amplification, and detection were performed as in Example 12. Filter sets of the fluorimeter (CytoFluor 2000 or EasyQ analyzer) were adapted to simultaneously measure the FAM and the ROX-label (485/20 and 530/25 for FAM; 590/20 and 645/40 for ROX). In a duplex reaction with two competing amplifications, the ratio of the slope of the curves of fluorescence in time is proportional to the ratio of the amount of molecules of each amplified species. The relation between the ratio of the slopes of FAM and ROX signal is linear to the ratio of mitochondrial DNA and chromosomal DNA in the input.
Forty-eight HIV-1 infected patients were randomized for antiviral therapy with either AZT, AZT+ddI, or AZT+ddC. Blood was drawn at week 0, 4, 24, and 48 after the start of therapy. The blood was used to prepare peripheral blood mononuclear cells (PBMC) by Ficoll-Isopaque purification. PBMC were viably frozen in medium plus 5% DMSO and stored in liquid nitrogen until use.
Nucleic acids were extracted from 10^5 PBMC using the Boom method. Nucleic acids equivalent of 1,000 PBMC were used as input for the one-tube real-time duplex-NASBA that measures both mitochondrial and chromosomal DNA as described in Example 17. The result of this assay is expressed as the mitochondrial DNA content per cell (i.e., PBMC) of the patient sample.
The mtDNA content of the PBMC of the patients at start of therapy was compared to the mtDNA content at week 4, 24, and 48 and analyzed for statistically significant changes (see Table 3 and FIGS. 20 and 21).

Series [1] has as its system peripheral blood mononuclear cells (PBMCs). Kind of series: NASBA ratio of mitochondrial RNA to chromosome-encoded RNA in cultured PBMCs. In kind it is cell-based, human (healthy blood donor). As for the experimental part:
In Table 1, the primers and probes used in the examples are summarized. Standard NASBA nucleic acid amplification reactions were performed in a 20 μl reaction volume and contained: 40 mM Tris-pH 8.5, 70 mM KCl, 12 mM MgCl2, 5 mM dithiothreitol, 1 mM dNTPs (each), 2 mM rNTPs (each), 0.2 μM primer (each), 0.05 μM molecular beacon, 375 mM sorbitol, 0.105 μg/μl bovine serum albumin, 6.4 units AMV RT, 32 units T7 RNA polymerase, 0.08 units RNAse H and input nucleic acid. The complete mixture, except the enzymes, sorbitol and/or bovine serum albumin was, prior to adding the enzyme mixture, heated to 65° C. for two minutes in order to denature any secondary structure in the RNA and to allow the primers to anneal. After cooling the mixture to 41° C., the enzymes were added. The amplification took place at 41° C. for 90 minutes in a fluorimeter (CytoFluor 2000) and the fluorescent signal was measured every minute (using the filter set 530/25 nm and 485/30 nm). For amplification of DNA target sequences, the 65° C. denaturation step was replaced with a 95° C. denaturation step for two to five minutes.
To achieve quantification, a dilution series of target sequences for a particular primer set was amplified and the time points at which the reactions became positive (the time to positivity, TTP) were plotted against the input amounts of nucleic acid. This way a calibration curve was created that could be used to read TTP values of reactions with unknown amounts of input and deduce the input amount.
Cells (fibroblasts and PBMCs) were cultured under standard conditions in standard media known to persons skilled in the art with the addition of drugs or putative toxic or stimulating compounds as defined in the examples. […] A small aliquot of the isolated nucleic acid was analyzed on an agarose gel and the remainder stored at −80° C. until further analysis. […]

On to `Cc1cn([C@H]2C[C@H](N=[N+]=[N-])[C@@H](CO)O2)c(=O)[nH]c1=O` [AZT], for which the “Mitochondrial DNA content in PBMC (per cell), Median” value with PBMC of patients (week 0 (start of therapy)) worked out at 196; in the series on PBMC of patients (week 4 of therapy), 157; with PBMC of patients (week 24 of therapy), 182; in the series with PBMC of patients (week 48 of therapy), 155. For the same compound, the “% decrease in mitochondrial DNA content of PBMC” value in the series with PBMC of patients (week 4 compared to start of therapy) came to 11%; in the series on PBMC of patients (week 24 compared to start of therapy) it was 1%; in the series with PBMC of patients (week 48 compared to start of therapy), 5%. In series [1] (culture period of five days, 6 μM and 60 μM), the “change in ratio of mitochondrial RNA to chromosome-encoded RNA” value is listed as “no measurable change”.
In the case of `Nc1ccn([C@H]2CC[C@@H](CO)O2)c(=O)n1` [ddC], the “change in the mitochondrial DNA content of patients' PBMC under therapy” value with PBMC of patients (human, in vivo) is given as “significant decline”. Also, in series [1] (five-day culture period, highest concentration of ddC used, FIG. 10), the “decline in PBMCs of mitochondrial RNA per cell” value is listed as “do not clearly show a decline”.

Source of the values: patent US20050208549A1, “Testing endosymbiont cellular organelles and compounds identifiable therewith” (priority 2000, published 2005).
